From paper PMC12040169 (PLOS Biology, 2025) come the findings set out here.

The nature of the first data set: in vitro. To be noted: human, hela cells, % viability.
Broadly, the viability is a read-out of living cells in per cent, often relative to untreated cells. Take `COc1ccc(-n2cc(-c3ccccc3C(F)(F)F)nn2)cc1OC` [CBK112965]: the viability at 28.5 h, 10 µM was found to be 89.4%.

Take `Oc1ccc(-n2cc(-c3ccccc3C(F)(F)F)nn2)cc1` [CBK112971]: the viability at 28.5 h, 10 µM stood at 95.5%.

Consider `N#Cc1ccc(-n2cc(-c3ccc(F)cc3F)nn2)cc1` [CBK112990], for which the viability at 28.5 h, 10 µM stood at 98.3%.

With `COc1ccc(-c2cn(-c3ccc(OC)c(OC)c3)nn2)cc1` [CBK113001], the viability at 28.5 h, 10 µM is 121%.

As for `COc1ccc(-c2cn(-c3cccc(NC(C)=O)c3)nn2)cc1` [CBK113008], the viability at 28.5 h, 10 µM was found to be 97.2%.

For `COc1ccc(-c2cn(-c3ccc(OC(F)(F)F)cc3)nn2)cc1` [CBK113024], the viability at 28.5 h, 10 µM was found to be 110%.

In the case of `Clc1ccc(-c2cn(-c3cnc4ccccc4c3)nn2)cc1` [CBK113044], the viability at 28.5 h, 10 µM is 94.8%.

Consider `Cc1ccc(Cl)cc1-n1cc(-c2ccc(Cl)cc2)nn1` [CBK113045], for which the viability at 28.5 h, 10 µM stood at 82.4%.

As for `NC(=O)c1ccc(-n2cc(-c3ccc(Cl)cc3)nn2)cc1` [CBK113046], the viability at 28.5 h, 10 µM came to 93.4%.

With `Fc1ccc(-n2cc(-c3cccnc3)nn2)cc1F` [CBK113055], the viability at 28.5 h, 10 µM is 89.3%.

Regarding `CS(=O)(=O)c1ccc(-n2cc(-c3cccnc3)nn2)cc1` [CBK113061], the viability at 28.5 h, 10 µM was found to be 104%.

Take `NC(=O)c1cccc(-n2cc(-c3ccsc3)nn2)c1` [CBK113076]: the viability at 28.5 h, 10 µM turned out to be 86.4%.

`Oc1ccc(-n2cc(-c3ccsc3)nn2)cc1` [CBK113093]: the viability at 28.5 h, 10 µM amounted to 84.6%.

Consider `COc1ccc(-n2cc(-c3ccc(F)cc3)nn2)cc1OC` [CBK113110], for which the viability at 28.5 h, 10 µM amounted to 89.8%.

As to `Fc1ccc(-c2cn(-c3ccc(OCc4ccccc4)c(F)c3)nn2)cc1` [CBK113121], the viability at 28.5 h, 10 µM came to 99%.

Consider `Oc1ccc(-n2cc(-c3ccc(F)cc3)nn2)cc1` [CBK113126], for which the viability at 28.5 h, 10 µM worked out at 82%.

With `Cc1ccc(Cl)cc1-n1cc(-c2ccc(F)cc2)nn1` [CBK113128], the viability at 28.5 h, 10 µM was 98.9%.

Take `N#Cc1cccc(-n2cc(-c3ccc(Br)cc3F)nn2)c1` [CBK113143]: the viability at 28.5 h, 10 µM is 95.4%.

For `Fc1cc(Br)ccc1-c1cn(-c2ccc(Oc3ccccc3)cc2)nn1` [CBK113145], the viability at 28.5 h, 10 µM came to 89.5%.

Regarding `C=CCC1c2cccc(C(=O)O)c2C(=O)N1c1ccc(F)cc1` (centres unmarked) [CBK113158], the viability at 28.5 h, 10 µM amounted to 94.1%.

In the case of `C=CCC1c2cccc(C(=O)O)c2C(=O)N1c1cccc(OC)c1` (centres unmarked) [CBK113160], the viability at 28.5 h, 10 µM came out at 96.7%.

`COc1ccc(OC)c(N2Cc3ccc(OC)c(OC)c3C2=O)c1` [CBK113161]: the viability at 28.5 h, 10 µM is 82.9%.

`COc1cc(NS(=O)(=O)c2cc(C(=O)O)c(Cl)cc2Cl)cc(OC)c1` [CBK113162]: the viability at 28.5 h, 10 µM was 98.9%.

As to `O=C(O)c1ccc(NS(=O)(=O)c2cc(C(=O)O)ccc2Br)cc1` [CBK113164], the viability at 28.5 h, 10 µM was determined as 106%.

`Cc1ccc(-c2nsc(SCC(=O)c3ccc(Cl)cc3)n2)cc1` [CBK113177]: the viability at 28.5 h, 10 µM stood at 92.1%.

In the case of `O=C1c2ccccc2CN1c1nccs1` [CBK113184], the viability at 28.5 h, 10 µM stood at 84.8%.

Regarding `COC(=O)c1ccc(S(N)(=O)=O)o1` [CBK113186], the viability at 28.5 h, 10 µM was 105%.

As for `O=C1c2ccccc2S(=O)(=O)N1c1ccc(F)cc1` [CBK113194], the viability at 28.5 h, 10 µM came to 112%.

Regarding `N#Cc1ccc(N2C(=O)c3ccccc3S2(=O)=O)cc1` [CBK113195], the viability at 28.5 h, 10 µM worked out at 113%.

For the compound `CCOC(=O)Cn1nc(CC)c(Cc2c(Cl)cccc2Cl)c1C` [CBK113222], the viability at 28.5 h, 10 µM was found to be 122%.

For the compound `COc1ccc(C(=O)Nc2nsc(-c3ccccc3)n2)cc1` [CBK113233], the viability at 28.5 h, 10 µM was determined as 97.2%.

As to `O=C(Nc1nc(-c2ccccc2)ns1)c1ccncc1` [CBK113234], the viability at 28.5 h, 10 µM is 81.6%.

`O=C1c2ccccc2C(Nc2cccnc2)N1c1ccccn1` (centres unmarked) [CBK113239]: the viability at 28.5 h, 10 µM amounted to 80.5%.

As to `Cc1[nH]c(=O)[nH]c(=O)c1Cc1ccccc1` [CBK113244], the viability at 28.5 h, 10 µM worked out at 113%.

Turning to `Cc1ccc(NC(=O)c2c[nH]c(=O)[nH]c2=O)cc1` [CBK113246], the viability at 28.5 h, 10 µM was determined as 95.7%.

For the compound `O=c1[nH]c(=S)[nH]c2c1CCC2` [CBK113252], the viability at 28.5 h, 10 µM came to 92.4%.

Consider `CCN(CC)CCCCC1(C)SC(NC2CCCCCC2)=NC1=O` (centres unmarked) [CBK113257], for which the viability at 28.5 h, 10 µM turned out to be 96.9%.

As for `O=C1S/C(=C/c2ccc(Cl)cc2)C(=O)N1c1ccc(F)cc1` [CBK113265], the viability at 28.5 h, 10 µM came out at 102%.

With `CC(C)Nc1cc(OC2CCN(C)CC2)ncn1` [CBK113280], the viability at 28.5 h, 10 µM was determined as 83.6%.

`FC(F)(F)c1ccc(OC2CCNCC2)nc1` [CBK113287]: the viability at 28.5 h, 10 µM was found to be 83%.

On to `CN1CCN(C)C(COc2ccc(C(F)(F)F)cn2)C1` (centres unmarked) [CBK113288], for which the viability at 28.5 h, 10 µM turned out to be 96.8%.

For `FC(F)(F)c1cccc(OCCN2CCNCC2)n1` [CBK113291], the viability at 28.5 h, 10 µM is 91.5%.

For the compound `CN1CCN(C)C(COc2cccc(C(F)(F)F)n2)C1` (centres unmarked) [CBK113292], the viability at 28.5 h, 10 µM is 106%.

`FC(F)(F)c1ccnc(OC2CCNCC2)n1` [CBK113294]: the viability at 28.5 h, 10 µM was determined as 118%.

In the case of `FC(F)(F)c1ccnc(OC2CCNC2)n1` (centres unmarked) [CBK113296], the viability at 28.5 h, 10 µM stood at 92.1%.

In the case of `CN1CCN(C)C(COc2nccc(C(F)(F)F)n2)C1` (centres unmarked) [CBK113298], the viability at 28.5 h, 10 µM is 95.2%.

As to `CN1CCC(Oc2nc3ccccc3nc2C(F)(F)F)CC1` [CBK113299], the viability at 28.5 h, 10 µM came to 90.1%.

In the case of `COc1ccc(C)cc1S(=O)(=O)n1ccc2c(CNC3CCN(C)CC3)cccc21` [CBK113308T], the viability at 28.5 h, 10 µM is 90.6%.

Take `COc1ccc(C)cc1S(=O)(=O)n1ccc2c(CNC3CCN(C(C)C)CC3)cccc21` [CBK113310T]: the viability at 28.5 h, 10 µM worked out at 117%.

Take `COc1ccc(C)cc1S(=O)(=O)n1ccc2c(CNC3CC(C)(C)NC(C)(C)C3)cccc21` [CBK113311T]: the viability at 28.5 h, 10 µM worked out at 83.1%.

As for `COc1ccc(C)cc1S(=O)(=O)n1ccc2c(CN3CCC(N)CC3)cccc21` [CBK113312T], the viability at 28.5 h, 10 µM amounted to 78.6%.

With `c1cc(-c2cncc(-c3ccsc3)n2)cs1` [CBK113356], the viability at 28.5 h, 10 µM came to 95.7%.

For the compound `C#CCOc1cncc(Cl)n1` [CBK113370], the viability at 28.5 h, 10 µM was determined as 87.7%.

As to `Clc1cncc(-c2ccccc2)n1` [CBK113371], the viability at 28.5 h, 10 µM is 93.8%.

On to `CC(C)(C)OC(=O)N1CCN(c2ccc(Cl)nn2)CC1` [CBK113381], for which the viability at 28.5 h, 10 µM stood at 96.2%.

Consider `OCCOc1ccnc2ccccc12` [CBK113395], for which the viability at 28.5 h, 10 µM was 95.8%.

Consider `CC(C)Nc1nccnc1OCCN1CCOCC1` [CBK113410], for which the viability at 28.5 h, 10 µM was determined as 104%.

Consider `CN(C)CCCOc1nccnc1N1CCCC1` [CBK113427], for which the viability at 28.5 h, 10 µM was found to be 89.6%.

Turning to `FC(F)(F)c1ccnc(OCCN2CCNCC2)c1` [CBK113459], the viability at 28.5 h, 10 µM was 97.4%.

As for `CN1CCN(C)C(COc2cc(C(F)(F)F)ccn2)C1` (centres unmarked) [CBK113460], the viability at 28.5 h, 10 µM stood at 90.7%.

On to `FC(F)(F)c1ccc(OCCN2CCOCC2)nc1` [CBK113461], for which the viability at 28.5 h, 10 µM was 101%.

Consider `FC(F)(F)c1ccc(OCCN2CCNCC2)nc1` [CBK113462], for which the viability at 28.5 h, 10 µM came out at 110%.

For `COc1ccc(SCCCCN2CCC3(CC2)OCCc2c3[nH]c3ccccc23)cc1` [CBK113464T], the viability at 28.5 h, 10 µM was found to be 0.266%.

With `Cc1ccc(C(=O)NCCCN2CCC3(CC2)OCCc2c3[nH]c3ccccc23)cc1` [CBK113485], the viability at 28.5 h, 10 µM stood at 85.5%.

Take `Cc1ccc(-n2sc(=O)n(CCc3ccccc3)c2=O)cc1` [CBK113496]: the viability at 28.5 h, 10 µM was 110%.

As for `COc1ccc(OCCCCCN2CCC3(CC2)OCCc2c3[nH]c3ccccc23)cc1` [CBK113517T], the viability at 28.5 h, 10 µM is 0%.

For the compound `CCCc1n[nH]c(-c2ccccc2Cl)c1C(=O)OCC` [CBK113547], the viability at 28.5 h, 10 µM is 107%.

`CCCc1n[nH]c(-c2ccc(Cl)cc2Cl)c1C(=O)OCC` [CBK113548]: the viability at 28.5 h, 10 µM was 107%.

For `FCCOc1cncc(Cl)n1` [CBK113553], the viability at 28.5 h, 10 µM is 115%.

In the case of `Clc1nccnc1NCCOc1ccccc1` [CBK113564], the viability at 28.5 h, 10 µM turned out to be 93.8%.

In the case of `O=C1N=C(NC2C3CC4CC(C3)CC2C4)OC12CCCC2` (centres unmarked) [CBK113576], the viability at 28.5 h, 10 µM was 94.2%.

As for `O=c1sn(C2CCCCC2)c(=O)n1Cc1ccc(F)cc1` [CBK113604], the viability at 28.5 h, 10 µM came out at 90.8%.

Turning to `Cc1ccccc1-n1sc(=O)n(Cc2ccc(F)cc2)c1=O` [CBK113605], the viability at 28.5 h, 10 µM was 101%.

Consider `CC(=O)OC1CCn2c1nc1ccccc12` (centres unmarked) [CBK113621], for which the viability at 28.5 h, 10 µM came out at 92.6%.

As to `Cc1ccc2c(c1)nc1n2CCC1O` (centres unmarked) [CBK113622], the viability at 28.5 h, 10 µM stood at 88.1%.

Take `OC1CCn2c1nc1cc(Cl)ccc12` (centres unmarked) [CBK113623]: the viability at 28.5 h, 10 µM was found to be 79.2%.

Consider `CC(=O)Nc1cccc(-c2nc(-c3ccc(C#N)cc3)cnc2N)c1` [CBK113659], for which the viability at 28.5 h, 10 µM amounted to 100%.

For the compound `O=C1CSC2c3ccccc3C(=O)N2c2ccccc21` (centres unmarked) [CBK113670], the viability at 28.5 h, 10 µM came to 108%.

For the compound `NS(=O)(=O)c1cc(C(=O)O)ccc1Cl` [CBK113676], the viability at 28.5 h, 10 µM came out at 108%.

Regarding `Cn1c(=O)sn(-c2ccccc2)c1=O` [CBK113677], the viability at 28.5 h, 10 µM came out at 115%.

`Cc1oc(S(=O)(=O)N(C)C)cc1C(=O)O` [CBK113681]: the viability at 28.5 h, 10 µM was 98.1%.

In the case of `O=C1c2ccccc2C(=O)N1c1ccccn1` [CBK113682], the viability at 28.5 h, 10 µM was 99.5%.

Regarding `CC(C)c1ccc(N2C(=O)SC(c3ccccc3)C2=O)cc1` (centres unmarked) [CBK113687], the viability at 28.5 h, 10 µM was found to be 91.1%.

Take `Cc1ccc(NC(=O)c2ccccc2NS(=O)(=O)c2ccc(C(C)C)cc2)cc1` [CBK113800]: the viability at 28.5 h, 10 µM came to 77.8%.

Take `Cc1cc(C)cc(NC(=O)c2ccccc2NS(=O)(=O)c2ccc(F)c(F)c2F)c1` [CBK113886]: the viability at 28.5 h, 10 µM was determined as 89.1%.

The data set is the same for the next values; noted with them: human, hela cells, % viability, bulk resorufin, single well.
In the case of `Cc1nc2ccc(NC(=O)Nc3cccc(-c4ccc5c(c4)COC4(CCNCC4)O5)c3)cc2o1` [CBK113206], the viability at 28.5 h, 10 µM turned out to be 101%.
